Positions of bridges follow the written chain, without caps; N, C: chain ends. No end group written: not given here.
Key:
[1] = biological target: T1, hASIC1a (Homo sapiens, UniProt P78348); experiment: TEVC in Xenopus laevis oocytes expressing hASIC1a; type: cell-based; details: for loss of potency relative to wild-type Ma-3: conditioning pH 7.45, stimulating pH 6
T1 construct: expressed in transfected cells; host or cells: Xenopus laevis oocytes (cRNA injection)
T1 sequence (P78348 1-528): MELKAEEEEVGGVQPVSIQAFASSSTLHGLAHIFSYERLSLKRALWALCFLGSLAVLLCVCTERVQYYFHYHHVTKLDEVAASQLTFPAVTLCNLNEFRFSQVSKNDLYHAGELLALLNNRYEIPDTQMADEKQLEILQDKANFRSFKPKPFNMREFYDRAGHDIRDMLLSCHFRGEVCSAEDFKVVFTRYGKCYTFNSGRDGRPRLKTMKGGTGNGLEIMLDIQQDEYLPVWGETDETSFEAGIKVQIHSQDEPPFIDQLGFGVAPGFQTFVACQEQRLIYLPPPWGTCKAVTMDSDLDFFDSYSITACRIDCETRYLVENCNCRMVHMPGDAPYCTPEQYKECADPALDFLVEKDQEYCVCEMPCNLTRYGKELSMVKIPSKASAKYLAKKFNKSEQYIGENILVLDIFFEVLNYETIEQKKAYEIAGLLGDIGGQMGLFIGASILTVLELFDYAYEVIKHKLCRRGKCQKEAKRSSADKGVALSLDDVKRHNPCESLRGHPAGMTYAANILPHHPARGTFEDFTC
Experimental: Two-electrode voltage-clamp (TEVC) experiments using Xenopus laevis oocytes were conducted as previously described. Briefly, oocytes were surgically removed from anaesthetised female frogs, then treated with collagenase (~ 1 mg/ml, Sigma type I) for 2 h under agitation at room temperature. cRNAs were synthesised using a mMessage mMachine T7 or SP6 transcription kit (Thermo Fisher Scientific Australia Pty Ltd, Scoresby, VIC, Australia) and injected into healthy stage V–VI oocytes at 0.2–20 ng per cell. Different amounts of RNA were used for different wild-type and mutant constructs, as well as to titrate expression levels to record over multiple days and maintaining consistent expression levels. Injected oocytes were incubated at 17 °C for 1–7 days in 50% Leibovitz’s L-15 medium (Gibco, Thermo Fisher Scientific Australia Pty Ltd, Scoresby, VIC, Australia), supplemented with 25 µg/mL gentamicin, 25 µg/mL streptomycin, and 2.5% fetal horse serum. Membrane currents were recorded 2–7 days after cRNA-injection under voltage-clamp at -60 mV (Axon Axoclamp 900 A, Molecular Devices, CA, USA) using two standard glass microelectrodes of 0.5–1 MΩ resistance when filled with 3 M KCl solution. Data were sampled at 2 kHz and filtered at 0.1 kHz using Clampex 10 software (Molecular Devices, CA, USA). […]
(§1) Specific to this work, the standard protocol was for oocytes to be conditioned at pH 7.45 and channels stimulated every 60 s using a 5 s pH 5 or 6 application, unless stated otherwise. […] Activation curves were determined by conditioning oocytes at pH 8 (Fig. 2e − g; and Fig. 5a and b) or 7.45 (Fig. 6; and Supplementary Fig. 2d and c) for 55 s and applying low pH stimuli from 7.25 to 5.0 for 5 s. Steady-state desensitisation (SSD) was determined by applying conditioning solutions of pH values from 8 to 6 for 115 s prior to stimulation by a pH drop to 5 for 5 s. […] Control pH-dependence curves were determined in the absence of any Ma-3. […]
Data were analysed using pCLAMP-Clampfit software (Version 11, Molecular Devices, CA, USA) and GraphPad Prism 9.5 and 10.2.2 (GraphPad Software, San Diego, CA, USA). […]

[2] = system: rASIC1a: rASIC1b chimera C166; experiment: TEVC oocytes, rASIC1a: rASIC1b chimera C166; type: cell-based, rat; details: conditioning pH 7.45, stimulating pH 5
Experimental: Two-electrode voltage-clamp (TEVC) experiments using Xenopus laevis oocytes were conducted as previously described. Briefly, oocytes were surgically removed from anaesthetised female frogs, then treated with collagenase (~ 1 mg/ml, Sigma type I) for 2 h under agitation at room temperature. cRNAs were synthesised using a mMessage mMachine T7 or SP6 transcription kit (Thermo Fisher Scientific Australia Pty Ltd, Scoresby, VIC, Australia) and injected into healthy stage V–VI oocytes at 0.2–20 ng per cell. […] Membrane currents were recorded 2–7 days after cRNA-injection under voltage-clamp at -60 mV (Axon Axoclamp 900 A, Molecular Devices, CA, USA) using two standard glass microelectrodes of 0.5–1 MΩ resistance when filled with 3 M KCl solution. […]
as §1

| Substance | loss of potency relative to wild-type Ma-3 [1] | activity of 300 nM Ma-3 [2] | pH50 of activation in presence of Ma-3 ([1]; 100 nM Ma-3 in the pH 8 conditioning solution, Hill fit, n = 5–6) |
| --- | --- | --- | --- |
| H-SLKCYQHGKVVTCHRDAKFCYHNIGMPFRNLKLILQGCSSSCSETENNKCCSTDRCNK (disulfide 4-20, 13-38, 42-50, 51-56 (inferred)) [M16A] | no change |  |  |
| H-SLKCYQHGAVVTCHRDMKFCYHNIGMPFRNLKLILQGCSSSCSETENNKCCSTDRCNK (disulfide 4-20, 13-38, 42-50, 51-56 (inferred)) [K8A] | ~ 4 fold |  |  |
| H-SLKCYQHGKVVTCHRDMKFCYHNIGMPFRNLKLILQGCSSSCSETENNKCCSTDRCNK (disulfide 4-20, 13-38, 42-50, 51-56 (inferred)) [Ma-3, mambalgin-3] |  | inhibited a greater proportion of current | 5.86 |

Source: paper PMC11335189, “Revealing molecular determinants governing mambalgin-3 pharmacology at acid-sensing ion channel 1 variants” (Cellular and Molecular Life Sciences: CMLS, 2024)
